Earlier results as cited in patent US20070281997A1, “TREATMENT OF HOT FLASHES USING MUSCARINIC RECEPTOR ANTAGONISTS” (priority 2006, published 2007).

System: hot flashes
Conditions: men receiving androgen deprivation therapy; previous reports, pilot studies

SMILES	efficacy to reduce hot flashes
CC(=O)[C@@]1(O)CC[C@H]2[C@@H]3C=C(C)C4=CC(=O)CC[C@]4(C)[C@H]3CC[C@@]21C [megasterol]	efficacious
Fc1ccc([C@@H]2CCNC[C@H]2COc2ccc3c(c2)OCO3)cc1 [paroxetine]	shown efficacy
COc1ccc(C(CN(C)C)C2(O)CCCCC2)cc1 (stereo not drawn) [venlafaxine]	shown efficacy
